Activity calls are given as the source filed them. How the calls were made is not given here. A value given as a limit tells only on which side of the number the result lay.

The test system of the experiment is Broad 7084-01 inhibitor HTS, set 2. The experiment is described as follows: single-concentration hits, screen 7084 set 2 (AID 977613).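 Further: host cells are infected with parasite promastigotes that become internalized.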
As for `O=C(CN1CCOCC1)N1CC(=O)N2[C@H](CO)[C@H](c3ccc(-c4cccc(F)c4)cc3)[C@@H]2C1`, the active concentration is > 10 µM (inactive).
Turning to `CN1C(=O)c2cc(NS(C)(=O)=O)ccc2OC[C@H]2O[C@H](CC(=O)N3CCOCC3)CC[C@H]21`, the active concentration is > 10 µM (inactive).
Turning to `CC(C)NC(=O)Nc1ccc2c(c1)C(=O)N(C)[C@@H]1CC[C@H](CC(=O)NCc3ccc(F)cc3)O[C@@H]1CO2`, the active concentration is > 10 µM (inactive).
`CC(C)NC(=O)N1CC2(C1)[C@H](c1ccccc1)[C@H](CO)N2CCC(F)(F)F`: the active concentration is > 10 µM (inactive).
In the case of `COCC(=O)N1CC2(C1)CN(Cc1nccs1)[C@@H](CO)c1c2c2ccc(OC)cc2n1C` it was > 10 µM (inactive); in that of `O=C(C[C@@H]1CC[C@@H]2NC[C@@H](O)COC[C@H]2O1)NCCN1CCCC1`, > 10 µM (inactive); in that of `CCC(=O)N1CC2(C1)[C@@H](c1ccc(-c3cccc(C)c3)cc1)[C@H](CO)N2S(C)(=O)=O`, > 10 µM (inactive).
In the case of `C[C@@H](O)C#Cc1ccc([C@@H]2[C@H](CO)N3CCCCN(C(=O)c4ccc5c(c4)OCO5)C[C@@H]23)cc1` it was > 10 µM (inactive); in that of `CC(C)(O)C#Cc1ccc([C@@H]2[C@H](CO)N3CCCCN(S(C)(=O)=O)C[C@@H]23)cc1`, > 10 µM (inactive); in that of `COc1ccc2c3c(n(C)c2c1)[C@@H](CO)N(C(=O)C1CC1)CC31CCN(Cc2cccc(F)c2)CC1`, > 10 µM (inactive).
In the case of `COc1ccc2c3c([nH]c2c1)[C@H](CO)N(Cc1ccncc1)CC31CCN(CC2CCOCC2)CC1` it was > 10 µM (inactive); in that of `CN1C[C@@H]2[C@H](c3ccccc31)[C@@H](CO)N2C(=O)Nc1cccc(F)c1`, > 10 µM (inactive).
Turning to `O=C(C[C@@H]1CC[C@H]2[C@@H](COC[C@@H](O)CN2C(=O)Cc2ccccc2)O1)NC1CCCC1`, the active concentration is > 10 µM (inactive).
For the compound `O=C(CN1CCOCC1)N1CC(=O)N2[C@H](C1)[C@@H](c1ccc(-c3cccc(F)c3)cc1)[C@@H]2CO`, the active concentration was > 10 µM (inactive).
On to `O=C(NCCCN1CCOCC1)[C@@H]1[C@@H](CO)[C@@H]2Cn3c(ccc(C4=CCCCC4)c3=O)[C@H]1N2`, for which the active concentration was > 10 µM (inactive).
In the case of `O=C(C[C@H]1CC[C@@H]2[C@H](COC[C@@H](O)CN2S(=O)(=O)c2ccccc2)O1)Nc1ccccc1` it was > 10 µM (inactive).
For `CN(C)C(=O)C[C@H]1CC[C@H]2[C@@H](COC[C@H](O)CN2CC2CC2)O1`, the active concentration is > 10 µM (inactive).
In the case of `O=C(C1CCC1)N1CC2(C1)[C@H](c1ccccc1)[C@H](CO)N2C(=O)c1ccccn1` it was > 10 µM (inactive).
In the case of `CCC(=O)N1CC2(C1)[C@@H](c1ccc(-c3ccc(F)cc3)cc1)[C@H](CO)N2C(=O)CC` it was > 10 µM (inactive).
In the case of `COC(=O)C[C@@H]1CC[C@@H]2[C@@H](COc3ccc(NS(=O)(=O)c4ccccc4Cl)cc3C(=O)N2C)O1` it was > 10 µM (inactive); in that of `COc1ccccc1CNC(=O)C[C@H]1CC[C@@H]2[C@H](COC[C@@H](O)CN2C(=O)Nc2ccccc2)O1`, > 10 µM (inactive).
On to `CN(C)CC(=O)N1[C@H](CO)[C@H](c2ccccc2-c2ccccc2F)[C@@H]1C#N`, for which the active concentration is > 10 µM (inactive).
In the case of `O=C1CN(S(=O)(=O)Cc2ccccc2)C[C@H]2[C@@H](c3ccc(C#Cc4ccccc4)cc3)[C@H](CO)N12` it was > 10 µM (inactive).
In the case of `CN(C)C(=O)c1cccc(-c2ccc([C@@H]3[C@@H](CO)N4C(=O)CN(C(=O)C5CCC5)C[C@@H]34)cc2)c1` it was > 10 µM (inactive); in that of `O=C(c1ccncc1)N1C[C@@H]2[C@H](c3ccccc31)[C@H](CO)N2Cc1ccccc1F`, > 10 µM (inactive); in that of `O=C(C[C@H]1CC[C@H]2[C@@H](COC[C@@H](O)CN2CCc2ccccc2)O1)NCc1ccc(F)cc1`, > 10 µM (inactive).
In the case of `CC=Cc1ccc2n(c1=O)C[C@H]1[C@H](CO)[C@@H](C(=O)Nc3ccc(-c4ccccc4)cc3)[C@@H]2N1C(=O)CC` (mixture of isomers) it was > 10 µM (inactive); in that of `O=C(c1cnccn1)N1CC[C@@H]2[C@H](CO)Nc3ccc(-c4ccccc4F)cc3[C@@H]21`, > 10 µM (inactive).
As for `O=C(C[C@H]1CC[C@@H]2[C@H](COC[C@@H](O)CN2Cc2cc(F)ccc2F)O1)NCc1ccc(F)cc1`, the active concentration is > 10 µM (inactive).
In the case of `COc1ccc(NC(=O)N2CC(=O)N3[C@H](CO)[C@@H](c4ccc(Br)cc4)[C@@H]3C2)cc1` it was > 10 µM (inactive); in that of `CC(=O)N1[C@H](CO)[C@@H](c2ccccc2)C12CN(C(=O)Cc1ccccc1)C2`, > 10 µM (inactive).
In the case of `CCC(=O)N1C[C@H]2[C@@H](c3ccccc31)[C@H](CO)N2C(=O)CC` it was > 10 µM (inactive).
In the case of `COc1ccc2c3c(n(C)c2c1)[C@@H](CO)N(S(=O)(=O)c1ccc(C)cc1)CC31CN(C(=O)c2ccccn2)C1` it was > 10 µM (inactive); in that of `COc1ccc(NC(=O)N2CC(=O)N3[C@H](CO)[C@H](c4ccc(Br)cc4)[C@@H]3C2)cc1`, > 10 µM (inactive); in that of `C/C=C/c1ccc([C@@H]2[C@@H](CO)N3C(=O)CN(C(=O)c4ccncc4)C[C@H]23)cc1`, > 10 µM (inactive).
`N#Cc1cccc(-c2ccc3c(c2)[C@@H]2[C@@H](CCN2S(=O)(=O)c2ccc(F)cc2)[C@H](CO)N3)c1`: the active concentration is > 10 µM (inactive).
In the case of `C/C=C/c1ccc2c(c1)[C@H]1[C@H](CCN1C(=O)Cc1cccnc1)[C@@H](CO)N2C` it was > 10 µM (inactive).
In the case of `O=C(C[C@H]1CC[C@@H]2[C@H](COC[C@@H](O)CN2S(=O)(=O)c2cccc(Cl)c2)O1)NC1CCC1` it was > 10 µM (inactive).
In the case of `O=C(C[C@@H]1CC[C@@H]2[C@H](COC[C@H](O)CN2CC2CCOCC2)O1)NCC1CCCCC1` it was > 10 µM (inactive).
In the case of `CCCNC(=O)N1CC2(C1)CN(Cc1ccc(F)cc1)[C@H](CO)c1[nH]c3cc(OC)ccc3c12`, the active concentration was > 10 µM (inactive).
With `COc1ccc2c3c([nH]c2c1)[C@H](CO)N(Cc1ccc(F)cc1)CC31CCN(C)CC1`, the active concentration is > 10 µM (inactive).
In the case of `CC(C)NC(=O)Nc1ccc2c(c1)C(=O)N(C)[C@@H]1CC[C@@H](CC(=O)NCc3ccc(F)cc3)O[C@H]1CO2` it was > 10 µM (inactive); in that of `C[C@@H](O)C#Cc1ccc([C@@H]2[C@@H](CO)N3CCCCN(C(=O)c4ccc5c(c4)OCO5)C[C@H]23)cc1`, > 10 µM (inactive).
In the case of `O=C([C@H]1[C@H](CO)[C@H]2Cn3c(cccc3=O)[C@@H]1N2Cc1cocn1)N1CCCCC1` it was > 10 µM (inactive).
In the case of `COc1ccccc1CNC(=O)C[C@@H]1CC[C@H]2[C@@H](COC[C@@H](O)CN2C(=O)Nc2ccccc2)O1` it was > 10 µM (inactive); in that of `CN(C)C(=O)C[C@H]1CC[C@@H]2[C@H](COC[C@@H](O)CN2C(=O)C2CC2)O1`, > 10 µM (inactive); in that of `O=C(C[C@@H]1CC[C@@H]2[C@H](COC[C@H](O)CN2C(=O)Nc2ccc(Cl)cc2)O1)NCC1CC1`, > 10 µM (inactive).
With `CN1C(=O)c2cc(NC(=O)c3cccc(F)c3)ccc2OC[C@@H]2O[C@@H](CC(=O)NCC3CCCCC3)CC[C@H]21`, the active concentration was > 10 µM (inactive).
In the case of `N#C[C@H]1[C@@H](c2ccccc2-c2ccccc2F)[C@H](CO)N1C(=O)C1CCC1` it was > 10 µM (inactive); in that of `COC(=O)c1ccc(CN2CC(=O)N3[C@H](CO)[C@H](c4ccc(-c5cccnc5)cc4)[C@H]3C2)cc1`, > 10 µM (inactive); in that of `O=C(C[C@@H]1CC[C@@H]2[C@H](COC[C@H](O)CN2CCC(F)(F)F)O1)NCC1CC1`, > 10 µM (inactive).
`C/C=C/c1ccc([C@@H]2[C@H](CO)N(C(=O)c3cnccn3)C23CN(C(C)=O)C3)cc1`: the active concentration was > 10 µM (inactive).
Turning to `O=C(Nc1cccc(F)c1)N1C[C@@H]2[C@H](c3ccccc31)[C@H](CO)N2C(=O)Cc1ccccn1`, the active concentration is > 10 µM (inactive).
In the case of `O=C1CNC[C@@H]2[C@H](c3ccc(C#CC4CCCCC4)cc3)[C@@H](CO)N12` it was > 10 µM (inactive).
In the case of `O=C(C[C@@H]1CC[C@H]2[C@@H](COC[C@@H](O)CN2C(=O)c2ccc(F)cc2)O1)NCc1cccc(F)c1` it was > 10 µM (inactive).
In the case of `CC1C=NC(S(=O)(=O)N2CC[C@@H]3[C@H](CO)N(C)c4ccc(-c5ccccc5F)cc4[C@@H]32)=N1` (some centres undefined) it was > 10 µM (inactive); in that of `Cc1ccccc1-c1ccc([C@H]2[C@H](CO)N3C(=O)CN(S(C)(=O)=O)C[C@@H]23)cc1`, > 10 µM (inactive); in that of `C/C=C/c1ccc([C@H]2[C@H](CO)N(S(=O)(=O)Cc3ccccc3)C23CN(C(=O)C2CCCC2)C3)cc1`, > 10 µM (inactive).
As to `O=C(Nc1ccc(F)cc1)N1CC(=O)N2[C@H](C1)[C@H](c1ccc(C#Cc3cccnc3)cc1)[C@@H]2CO`, the active concentration was > 10 µM (inactive).
In the case of `O=C(C[C@H]1CC[C@H]2[C@@H](COC[C@@H](O)CN2C(=O)c2ccccc2F)O1)NCc1ccccc1` it was > 10 µM (inactive); in that of `CN1CCCCN2[C@H](CO)[C@H](c3ccc(-c4ccc(F)cc4)cc3)[C@@H]2C1`, > 10 µM (inactive); in that of `O=C(CC1CC1)N1CC(=O)N2[C@H](C1)[C@@H](c1ccc(/C=C/c3ccccc3)cc1)[C@@H]2CO`, > 10 µM (inactive).
In the case of `COc1ccc(CN2[C@H](CO)[C@H]3c4ccccc4N(C(=O)Nc4ccc(F)cc4)C[C@H]32)cc1` it was > 10 µM (inactive).
In the case of `O=C(C[C@@H]1CC[C@H]2[C@@H](COC[C@H](O)CN2Cc2ccc3c(c2)OCO3)O1)Nc1ccccc1` it was > 10 µM (inactive).
